Source: ChEMBL document CHEMBL1201862, “PubChem BioAssay data set” (2004)
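Cultured in 96-well plates, cells were exposed to test compound for 48 hours across five concentrations. GI50 = concentration required for 50% inhibition of growth.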 Calls of active or inactive are those of the source. Rule as the data show it: active = GI50 up to about 1.1 µM and inactive = higher.

Experiments:
Assay in all cases: NCI-60 cell line screen, 48 h
786-0 = system: 786-0
A549 = system: A549
COLO 205 = system: COLO 205
HOP-62 = system: HOP-62
LOX IMVI = system: LOX IMVI
MOLT-4 = system: MOLT-4
NCI-H23 = system: NCI-H23
OVCAR-8 = system: OVCAR-8
SK-MEL-2 = system: SK-MEL-2
SK-MEL-5 = system: SK-MEL-5
SNB-19 = system: SNB-19
SW-620 = system: SW-620
U-251 = system: U-251
UACC-62 = system: UACC-62
UO-31 = system: UO-31
CAKI-1 = system: CAKI-1

Row | Compound | GI50 (786-0) | GI50 (A549) | GI50 (COLO 205) | GI50 (HOP-62) | GI50 (LOX IMVI) | GI50 (MOLT-4) | GI50 (NCI-H23) | GI50 (OVCAR-8) | GI50 (SK-MEL-2) | GI50 (SK-MEL-5) | GI50 (SNB-19) | GI50 (SW-620) | GI50 (U-251) | GI50 (UACC-62) | GI50 (UO-31) | GI50 (CAKI-1)
1 | COC(=O)c1ccc(/N=N/N(C)CO)cc1 | 74 µM (inactive) | > 100 µM (inactive) | > 100 µM (inactive) | 81.8 µM (inactive) | > 100 µM (inactive) | > 100 µM (inactive) | > 100 µM (inactive) | 83.2 µM (inactive) | > 100 µM (inactive) | > 100 µM (inactive) | 86.5 µM (inactive) | > 100 µM (inactive) | 48.6 µM (inactive) | 51.1 µM (inactive) | > 100 µM (inactive) | 
2 | CC1=C(O)C(=O)[C@@H]2O[C@@H]2C1=O |  | 27.3 µM (inactive) | 4.72 µM (inactive) | 35.3 µM (inactive) | 12.5 µM (inactive) | 2.97 µM (inactive) | 12.7 µM (inactive) | 4.79 µM (inactive) | 16 µM (inactive) | 16.1 µM (inactive) | 32.8 µM (inactive) | 3.65 µM (inactive) | 19.4 µM (inactive) | 8.49 µM (inactive) | 22.3 µM (inactive) | 5.69 µM (inactive)
3 | N#CC(OC1OC(COC2OC(CO)C(O)C(O)C2O)C(O)C(O)C1O)c1ccccc1 (centres undefined) |  | > 225 µM (inactive) | > 225 µM (inactive) | > 225 µM (inactive) | > 225 µM (inactive) | > 225 µM (inactive) | > 225 µM (inactive) | > 225 µM (inactive) | > 225 µM (inactive) | > 225 µM (inactive) | > 225 µM (inactive) | > 225 µM (inactive) | > 225 µM (inactive) | > 225 µM (inactive) | > 225 µM (inactive) | > 225 µM (inactive)
4 | COc1cc2c(cc1OC)C(Cl)C(c1ccc(Cl)cc1)=C2Cl (centres undefined) |  |  | 16.8 µM (inactive) |  | 12.1 µM (inactive) | 6.73 µM (inactive) | 14.2 µM (inactive) | 19.3 µM (inactive) | 16 µM (inactive) | 14.4 µM (inactive) | 27.2 µM (inactive) | 18.7 µM (inactive) | 13.7 µM (inactive) | 12.5 µM (inactive) | 16.8 µM (inactive) | 17.3 µM (inactive)
5 | Cc1nc(=O)n2c(c1C(=O)Nc1ccc(Cl)cc1)NCCC2 | > 100 µM (inactive) | > 100 µM (inactive) | > 100 µM (inactive) | > 100 µM (inactive) | > 100 µM (inactive) | > 100 µM (inactive) | > 100 µM (inactive) | > 100 µM (inactive) | > 100 µM (inactive) |  | 32 µM (inactive) | > 100 µM (inactive) | > 100 µM (inactive) | > 100 µM (inactive) |  | > 100 µM (inactive)
6 | CCCCc1c2c(nc3c1CCCC3=O)CCCC2 | > 100 µM (inactive) | > 100 µM (inactive) | > 100 µM (inactive) | > 100 µM (inactive) | > 100 µM (inactive) | > 100 µM (inactive) | > 100 µM (inactive) | > 100 µM (inactive) |  | > 100 µM (inactive) | > 100 µM (inactive) | > 100 µM (inactive) | > 100 µM (inactive) |  | > 100 µM (inactive) | 
7 | C=C(C(=C)P(=S)(c1ccccc1)c1ccccc1)P(=S)(c1ccccc1)c1ccccc1 | > 100 µM (inactive) | > 100 µM (inactive) | > 100 µM (inactive) | > 100 µM (inactive) |  | > 100 µM (inactive) | > 100 µM (inactive) | > 100 µM (inactive) | > 100 µM (inactive) | > 100 µM (inactive) | > 100 µM (inactive) | > 100 µM (inactive) | > 100 µM (inactive) | > 100 µM (inactive) |  | > 100 µM (inactive)
8 | COC(c1cccc(C(O)(C(F)(F)F)C(F)(F)F)c1)(C(F)(F)F)C(F)(F)F | 17.6 µM (inactive) | 16.6 µM (inactive) | 19.3 µM (inactive) | 19.1 µM (inactive) | 17.5 µM (inactive) | 22 µM (inactive) | 19.7 µM (inactive) | 24.6 µM (inactive) | 18.2 µM (inactive) |  | 19.4 µM (inactive) | 18.8 µM (inactive) | 18.3 µM (inactive) | 14.3 µM (inactive) | 19.9 µM (inactive) | 24.4 µM (inactive)
9 | O=C1C(Cl)N(c2cccc([N+](=O)[O-])c2)C1c1c[nH]c2ccccc12 (centres undefined) |  | 22.1 µM (inactive) | 22.5 µM (inactive) | 17.1 µM (inactive) |  | 8.38 µM (inactive) | 22.2 µM (inactive) | 23.1 µM (inactive) | 14.4 µM (inactive) | 17 µM (inactive) | 23.9 µM (inactive) | 21.7 µM (inactive) | 22.2 µM (inactive) | 13.8 µM (inactive) | 17.5 µM (inactive) | 
10 | O=C1NP23(OCCO2)Oc2ccccc2C3(C(F)(F)F)O1 (centres undefined) |  | > 100 µM (inactive) |  |  | > 100 µM (inactive) | > 100 µM (inactive) | > 100 µM (inactive) | > 100 µM (inactive) | > 100 µM (inactive) | > 100 µM (inactive) | > 100 µM (inactive) |  | > 100 µM (inactive) | > 100 µM (inactive) |  | 
11 | O=C(CSSCC(=O)Nc1ccc(Br)cc1)Nc1ccc(Br)cc1 | 17.6 µM (inactive) | 16.8 µM (inactive) | 28.5 µM (inactive) | 12.4 µM (inactive) | 10.8 µM (inactive) | 14.1 µM (inactive) | 19.3 µM (inactive) | 17.3 µM (inactive) |  | 24 µM (inactive) | 15.3 µM (inactive) | 15.2 µM (inactive) | 14.4 µM (inactive) | 15.9 µM (inactive) | 17.7 µM (inactive) | 24.2 µM (inactive)
12 | Cc1cc(C)n(CCNCCn2nc(C)cc2C)n1 | > 100 µM (inactive) | > 100 µM (inactive) | > 100 µM (inactive) | > 100 µM (inactive) | > 100 µM (inactive) | > 100 µM (inactive) | > 100 µM (inactive) | > 100 µM (inactive) |  | > 100 µM (inactive) | > 100 µM (inactive) | > 100 µM (inactive) | > 100 µM (inactive) | > 100 µM (inactive) | > 100 µM (inactive) | > 100 µM (inactive)
13 | O=P1(Oc2ccc(Cl)cc2Cl)Oc2cc3ccccc3cc2O1 |  | 66.2 µM (inactive) | 97.9 µM (inactive) | 71.8 µM (inactive) | 68.9 µM (inactive) | 23.5 µM (inactive) | 43.9 µM (inactive) | 69 µM (inactive) | 81.1 µM (inactive) | 59 µM (inactive) | > 100 µM (inactive) | 70.1 µM (inactive) | 81.7 µM (inactive) | 43.7 µM (inactive) | 24.9 µM (inactive) | > 71.8 µM (inactive)
14 | CCOC(=O)C(N=C(c1ccccc1)c1ccccc1)N(C(=O)OC(C)(C)C)C(=O)OC(C)(C)C (centres undefined) | > 100 µM (inactive) | > 100 µM (inactive) | > 100 µM (inactive) |  |  | > 100 µM (inactive) | > 100 µM (inactive) | > 100 µM (inactive) | > 100 µM (inactive) | > 100 µM (inactive) | > 100 µM (inactive) | > 100 µM (inactive) | > 100 µM (inactive) | > 100 µM (inactive) | > 100 µM (inactive) | > 100 µM (inactive)
15 | Cc1ccccc1NC(=O)CSc1nnc(-c2ccc(/N=C\c3ccc(Cl)cc3)cc2)o1 | > 100 µM (inactive) | > 100 µM (inactive) | > 100 µM (inactive) | > 100 µM (inactive) | > 100 µM (inactive) | > 100 µM (inactive) | > 100 µM (inactive) | > 100 µM (inactive) | > 100 µM (inactive) | > 100 µM (inactive) | > 100 µM (inactive) | > 100 µM (inactive) | > 100 µM (inactive) | > 100 µM (inactive) | > 100 µM (inactive) | 
16 | C=C1CC(OC)(C(O)C(=O)N[C@H]2OCO[C@H]3C2O[C@H](C[C@H](O)COC)C(C)(C)C3OC)O[C@H](C)[C@@H]1C (some centres undefined) |  | < 0.00773 µM (active) | < 0.00773 µM (active) | < 0.00773 µM (active) | < 0.00773 µM (active) | < 0.00773 µM (active) | < 0.00773 µM (active) | < 0.00773 µM (active) |  | < 0.00773 µM (active) | < 0.00773 µM (active) | < 0.00773 µM (active) | < 0.00773 µM (active) | < 0.00773 µM (active) | < 0.00773 µM (active) | < 0.00773 µM (active)
17 | CSCC[C@@H](NC(=O)[C@H](CC(C)C)NC(=O)C(Cc1cnc[nH]1)NC(=O)CNC(=O)[C@@H](NC(=O)[C@H](C)NC(=O)[C@H](Cc1c[nH]c2ccccc12)NC(=O)[C@H](CCC(N)=O)NC(=O)[C@@H](N)CC(N)=O)C(C)C)C(N)=O (some centres undefined) |  | > 100 µM (inactive) | > 100 µM (inactive) | > 100 µM (inactive) | 99.8 µM (inactive) | > 55.7 µM (inactive) | > 100 µM (inactive) | > 100 µM (inactive) | > 100 µM (inactive) | > 100 µM (inactive) | > 100 µM (inactive) | > 100 µM (inactive) | > 100 µM (inactive) | > 100 µM (inactive) | > 100 µM (inactive) | 
18 | CCCCC#C[I+]c1ccccc1 | 15.5 µM (inactive) | 17.8 µM (inactive) | 15.4 µM (inactive) | 21.5 µM (inactive) | 12.3 µM (inactive) | 3.82 µM (inactive) | 13.6 µM (inactive) | 16.1 µM (inactive) | 17.7 µM (inactive) | 17.3 µM (inactive) | 16.9 µM (inactive) |  | 16.2 µM (inactive) | 17 µM (inactive) | 16.4 µM (inactive) | 14 µM (inactive)
19 | Cn1c(=O)nc2n(-c3ccc(Br)cc3)c3ccccc3nc-2c1=O | 3.74 µM (inactive) | 2.02 µM (inactive) | 2.64 µM (inactive) | 13.6 µM (inactive) |  | 6.25 µM (inactive) | 0.783 µM (active) | 3.38 µM (inactive) | 9.33 µM (inactive) | 1.77 µM (inactive) | 2.9 µM (inactive) | 2.06 µM (inactive) | 5.12 µM (inactive) | 1.3 µM (inactive) | 10.4 µM (inactive) | 4.86 µM (inactive)
